According to US20260315609A1, “MIXED VASOPRESSIN RECEPTOR AGONIST-ANTAGONIST FOR TREATING END-STAGE LIVER DISEASE AND COMPLICATIONS ASSOCIATED THEREOF” (FERRING B.V., priority 2022, published 2026):
Starred links: 1 amine or outer side, 2 acyl side, 3 side chain; linkers in the order of their positions; H or OH if unused. Positions of bridges follow the written chain, without caps; N, C: chain ends. Non-standard residues stand in square brackets, D forms with d. Residues, ends and D or L forms follow the SMILES beside them. Chains are numbered I, II in the order given. *: point of attachment. isoGln = NC(=O)[C@H](CCC(=O)[*:2])N[*:1]; εLys = N[C@@H](CCCCN[*:1])C(=O)[*:2]; Dab = NCC[C@H](N)C(=O)O; PhAc = O=C(Cc1ccccc1)*

What was measured:
[1] = system: methionine/choline-deficient (MCD) diet rats; assay: MAP / ΔMAP in methionine/choline-deficient (MCD) diet rats; type: in vivo, rat; settings: for Δ MAP (mean): SC, MCD diet rats
Protocol: The terlipressin dose was 100 μg/kg.
Data were evaluated as change […] from baseline.

[2] = PK of Compound 1, once daily subcutaneous (bolus) injection for 5 days in healthy men and women (Period 2); type: in vivo, human
Text: In some instances, endpoints of the study were: vital signs (e.g., supine blood pressure, pulse, and body temperature), electrocardiogram (ECG) (e.g., intervals, rhythm, and morphology), cardiac function (e.g., cardiac output using echocardiography), peripheral blood flow/tissue perfusion (e.g., by skin color), venous blood gases (e.g., lactate), urinary output, clinical chemistry, hematology, hemostasis, and urinalysis, adverse events (AEs) (e.g., type, frequency, and intensity), pharmacokinetics (e.g., AUC, AUCt, AUCτ, % Extrap AUC, Cmax, tmax, CL, Vz, t1/2, MRT, Vss, F, Ae, and CLR), and metabolite pattern in plasma and urine.

[3] = Tolerability in healthy monkeys; type: in vivo, cynomolgus monkey; settings: non-human primates
Protocol: Clinical observations were made before and after dosing. IV administration
The data reported herein were collected over 19 dosing sessions of four animals each, using a total of six monkeys. Animals were repeat dosed in a crossover design with at least one animal receiving vehicle for each round; the animal receiving vehicle was varied between rounds. A 48- to 72-h washout period was used between dosing sessions. Animals were observed by camera for ~1 h before dosing (covering the baseline period) and up to 3 h after dosing.

[4] = Safety and tolerability / adverse events in healthy subjects; type: in vivo, human
Text: The terms “adverse event” or “AE” as used herein, refer to an untoward medical occurrence in an individual, such as an individual participating in a clinical trial. In some instances, an AE is an unfavorable and/or unintended sign, symptom, or disease, such as being temporally associated with the use of an investigative medicinal product (IMP), whether or not considered to be caused by the IMP. For example, an AE can include accidental injuries, reasons for any change in medication (drug and/or dose), reasons for any medical, nursing or pharmacy consultation, or reasons for admission to hospital or surgical procedures, and overdoses and medication errors with or without clinical consequences. In some instances, AEs are anticipated based on the pharmacological effect of the IMP. In some instances, an AE is a laboratory abnormality, vital sign or finding from physical or gynecological examination assessed as clinically significant by the investigator. In some instances, a pre-treatment adverse event is any untoward medical occurrence arising or observed between signing of informed consent and the first administration of the IMP. In some instances, a treatment emergent adverse event is an AE occurring after the administration of the IMP and within the time of residual drug effect, or a pre-treatment adverse event or pre-existing medical condition that worsens in intensity after administration of the IMP and within the time of residual drug effect.
Injection site reactions were assessed by the Investigator in treatment Period 2 only, immediately after, 0.5, 4, and 24 hours after subcutaneous administration of the study drug on Days 1 to 5. The injection site reactions to be assessed were erythema, pain, pruritus, oedema, bruising, and pallor, each to be assessed as none, mild, moderate, or severe. Injection site reactions other than those described above or persisting longer than 24 hours were classified as adverse events (AEs).
Blood samples for hematology and hemostasis parameters were collected on Day −1, and at 2, and 4 hours after the administration on Day 1, pre-dose, and 3 hours after the administration on Days 2-4, pre-dose, and at 2, and 6 hours after the administration on Day 5 and at follow-up. The actual sampling times were recorded.
Urinalysis was performed locally by means of a dip-stick test. […] In case any result of the dipstick was abnormal and clinically significant, a new urine test was to be performed. If the abnormal result was confirmed, further examination could be initiated at the discretion of the Investigator. Clinically significant abnormal findings were reported as AEs. The metabolite pattern of Compound 1 in plasma and urine were measured.

[5] = s.c. 0.1 mg, 1st administration
[6] = s.c. 0.1 mg, 5th administration
[7] = s.c. 0.3 mg, 1st administration
[8] = s.c. 0.3 mg, 5th administration
[9] = i.v., Period 1, active treatment
[10] = s.c., Period 2, active treatment

For `CC[C@H](C)[C@@H]1NC(=O)[C@H](Cc2ccccc2)NC(=O)[C@@H](N)CSSC[C@@H](C(=O)N2CCC[C@H]2C(=O)N[C@@H](CCNC(=O)[C@@H](N)CCCCNC(=O)[C@H](CCCCNC(C)=O)NC(=O)CC[C@H](NC(=O)[C@H](CCCNC(=N)N)NC(=O)[C@@H]2CCCN2C(=O)[C@H](C)NC(=O)[C@H](CC(N)=O)NC(=O)[C@H](CCC(N)=O)NC(=O)[C@H](Cc2ccccc2)NC(=O)[C@@H](Cc2ccc(OC)cc2)NC(=O)Cc2ccccc2)C(N)=O)C(=O)NCC(N)=O)NC(=O)[C@H](CC(N)=O)NC(=O)[C@H](CCC(N)=O)NC1=O` [Compound 1, Glycinamide, L-cysteinyl-L-phenylalanyl-L-isoleucyl-L-glutaminyl-L-asparaginyl-L-cysteinyl-L-prolyl-N4-(phenylacetyl-O-methyl-D-tyrosyl-L-phenylalanyl-L-glutaminyl-L-asparaginyl-L-alanyl-L-prolyl-L-arginyl-L-isoglutamyl-N5-acetyl-L-lysyl-L-ε-lysyl)-L-2,4-diaminobutyryl-, cyclic (1→6)-disulfide] (I: H-CFIQNCP[Dab]G-NH2 / II: PhAc-[dY](Me)FQNAPR[isoGln]K(Ac)[εLys]; disulfide I:1-I:6; amide I:8-II:C), the “Δ MAP (mean)” value ([1]; 25 μg/kg, 0 min) was 0.0 mmHg, the “Δ MAP (mean)” value ([1]; 25 μg/kg, 1 min) was 1.1 mmHg and the “Δ MAP (mean)” value ([1]; 25 μg/kg, 2 min) was 1.9 mmHg. The “Δ MAP (mean)” value ([1]; 25 μg/kg, 3 min) was 2.6 mmHg, the “Δ MAP (mean)” value ([1]; 25 μg/kg, 5 min) was 3.5 mmHg and the “Δ MAP (mean)” value ([1]; 25 μg/kg, 7 min) was 4.0 mmHg. For the same molecule, the “Δ MAP (mean)” value ([1]; 25 μg/kg, 10 min) was 4.8 mmHg, the “Δ MAP (mean)” value ([1]; 25 μg/kg, 15 min) was 5.3 mmHg and the “Δ MAP (mean)” value ([1]; 25 μg/kg, 20 min) was 5.2 mmHg. For the same molecule, the “Δ MAP (mean)” value ([1]; 25 μg/kg, 30 min) was 4.4 mmHg, the “Δ MAP (mean)” value ([1]; 25 μg/kg, 60 min) was 3.0 mmHg and the “Δ MAP (mean)” value ([1]; 25 μg/kg, 90 min) was 3.1 mmHg. For the same molecule, the “Δ MAP (mean)” value ([1]; 100 μg/kg, 0 min) was 0.0 mmHg, the “Δ MAP (mean)” value ([1]; 100 μg/kg, 1 min) was 2.0 mmHg and the “Δ MAP (mean)” value ([1]; 100 μg/kg, 2 min) was 3.5 mmHg. For the same molecule, the “Δ MAP (mean)” value ([1]; 100 μg/kg, 3 min) was 4.4 mmHg, the “Δ MAP (mean)” value ([1]; 100 μg/kg, 5 min) was 7.0 mmHg and the “Δ MAP (mean)” value ([1]; 100 μg/kg, 7 min) was 8.5 mmHg. The “Δ MAP (mean)” value ([1]; 100 μg/kg, 10 min) was 9.9 mmHg, the “Δ MAP (mean)” value ([1]; 100 μg/kg, 15 min) was 11.0 mmHg and the “Δ MAP (mean)” value ([1]; 100 μg/kg, 20 min) was 11.3 mmHg. For the same molecule, the “Δ MAP (mean)” value ([1]; 100 μg/kg, 30 min) was 10.6 mmHg, the “Δ MAP (mean)” value ([1]; 100 μg/kg, 60 min) was 10.9 mmHg and the “Δ MAP (mean)” value ([1]; 100 μg/kg, 90 min) was 9.2 mmHg. For the same molecule, the “Δ MAP (mean)” value ([1]; 500 μg/kg, 0 min) was 0.0 mmHg, the “Δ MAP (mean)” value ([1]; 500 μg/kg, 1 min) was 2.2 mmHg and the “Δ MAP (mean)” value ([1]; 500 μg/kg, 2 min) was 4.5 mmHg. For the same molecule, the “Δ MAP (mean)” value ([1]; 500 μg/kg, 3 min) was 6.4 mmHg, the “Δ MAP (mean)” value ([1]; 500 μg/kg, 5 min) was 9.1 mmHg and the “Δ MAP (mean)” value ([1]; 500 μg/kg, 7 min) was 12.1 mmHg. The “Δ MAP (mean)” value ([1]; 500 μg/kg, 10 min) was 14.7 mmHg, the “Δ MAP (mean)” value ([1]; 500 μg/kg, 15 min) was 13.6 mmHg and the “Δ MAP (mean)” value ([1]; 500 μg/kg, 20 min) was 13.7 mmHg. For the same molecule, the “Δ MAP (mean)” value ([1]; 500 μg/kg, 30 min) was 11.4 mmHg, the “Δ MAP (mean)” value ([1]; 500 μg/kg, 60 min) was 9.1 mmHg and the “Δ MAP (mean)” value ([1]; 500 μg/kg, 90 min) was 10.2 mmHg. For the same molecule, the “highest observed absolute MAP” value ([1]; SC 25 μg/kg) was 79.2±1.4 mmHg, the “highest observed absolute MAP” value ([1]; SC 100 μg/kg) was 86.8±2.5 mmHg and the “highest observed absolute MAP” value ([1]; SC 500 μg/kg) was 90.4±3.7 mmHg. The “maximum ΔMAP” value ([1]; SC 25 g/kg (so in the source)) was 5.3±1.1 mmHg, the bioavailability ([2]; repeated s.c. injections, versus i.v.) was “about 18%” and the “terminal half-life (summary)” value ([2]; s.c.) was “about 1 hours”. The “tmax (summary)” value ([2]; s.c.) was “about 0.3 hours”, the “AUC, geometric mean” value [2, 5] was 0.87 (22) h*ng/mL and the “AUC, mean” value [2, 5] was 0.88 (0.19) h*ng/mL. The “Cmax, geometric mean” value [2, 5] was 0.43 (41) ng/mL, the “Cmax, mean” value [2, 5] was 0.46 (0.17) ng/mL and the “tmax, mean” value [2, 5] was 0.3 (0.1) h. For the same molecule, the “AUC, geometric mean” value [2, 6] was 0.70 (3) h*ng/mL, the “AUC, mean” value [2, 6] was 0.70 (0.02) h*ng/mL and the “Cmax, geometric mean” value [2, 6] was 0.42 (28) ng/mL. The “Cmax, mean” value [2, 6] was 0.43 (0.14) ng/mL, the “tmax, mean” value [2, 6] was 0.3 (0.1) h and the “AUC, geometric mean” value [2, 7] was 6.40 (109) h*ng/mL. The “AUC, mean” value [2, 7] was 7.90 (5.01) h*ng/mL, the “Cmax, geometric mean” value [2, 7] was 2.45 (98) ng/mL and the “Cmax, mean” value [2, 7] was 2.99 (2.03) ng/mL. For the same molecule, the “t1/2, mean” value [2, 7] was 1.6 (0.7) h, the “tmax, mean” value [2, 7] was 0.4 (0.5) h and the “AUC, geometric mean” value [2, 8] was 2.77 (113) h*ng/mL. The “AUC, mean” value [2, 8] was 3.36 (2.69) h*ng/mL, the “Cmax, geometric mean” value [2, 8] was 1.42 (58) ng/mL and the “Cmax, mean” value [2, 8] was 1.52 (0.79) ng/mL. The “tmax, mean” value [2, 8] was 0.4 (0.2) h, the “tmax, median” value [2, 8] was 24 min and the median tmax ([2]; s.c. 0.1 and 0.3 mg, 1st and 5th administrations) was 18 to 24 min. For the same molecule, the “effect on body temperature” value [3] was “no apparent Compound 1-related effect on body temperature”, the tolerability ([3]; single-dose SC and IV bolus) was “well tolerated” and the “severe AEs” value ([4]; i.v. 0.1 mg (bradycardia)) was “One”. The “TEAEs regarded as ADRs” value ([4]; i.v., 34 subjects on active treatment) was 87, the “serious AEs” value ([4]; i.v., Period 1) was “No serious AEs occurred” and the “number of TEAEs” value [4, 9] was 94. The “subjects with TEAEs” value [4, 9] was 35 of the 48, the “maximum tolerated s.c. dose (MTD)” value ([4]; s.c.) was “about 0.1 mg” and the “severe AEs” value ([4]; s.c. 0.1 mg (abdominal pain)) was 3. For the same molecule, the “subjects with moderate oedema and mild pain at injection site” value ([4]; s.c. 0.1 mg, 30 min) was 1 subject, the “severe AEs” value ([4]; s.c. 0.3 mg (abdominal pain, back pain), 1 subject) was 2 and the “serious AEs leading to discontinuation” value ([4]; s.c. 0.3 mg (elevated troponin I)) was 1. The injection site reactions ([4]; s.c. (bolus) injection) was “Erythema, pallor, and pruritus of mild severity”, the “TEAEs regarded as ADRs” value ([4]; s.c., 9 subjects on active treatment) was 87 and the “AE leading to death” value ([4]; s.c., Period 2) was “No AE led to death”. The “number of TEAEs” value [4, 10] was 87, the “subjects with TEAEs” value [4, 10] was 9 subjects and the tolerability ([4]; single i.v. infusion, about 0.9 mg or less) was “safe and well tolerated”.
